Laboratory results from PMC6792352, “Limited Chemical Structural Diversity Found to Modulate Thyroid Hormone Receptor in the Tox21 Chemical Library” (Environmental Health Perspectives, 2019).
Where a name gives a salt, the structure may show the parent alone.

Test: in vitro
Conditions: rat, gh3-tre-luc cells

SMILES	CC50 at 24 h (AC50 (uM) modified / 1000) [µM]	further results
CCCCN1C[C@H](O)[C@@H](O)[C@H](O)[C@H]1CO [Miglustat]	> 50	
CCc1ccc(C)cc1 [4-Ethyltoluene]	> 90	
O=C(Cn1cnnn1)N[C@@H]1C(=O)N2C(C(=O)O)=C(CSc3nncs3)CS[C@H]12 [Ceftezole sodium]	> 50	
C1CCCCC1 [Cyclohexane]	> 90	
Cc1ccc2nc(-c3ccc(N)cc3)sc2c1S(=O)(=O)O	> 50	
CC(C)=CC1C(C(=O)OCN2C(=O)C3=C(CCCC3)C2=O)C1(C)C (stereo not drawn) [Tetramethrin]		CC50 at 24 h (AC50 (uM) modified / 1000, Tox21_110001=Tox21_112623, viability, 1 nM T3 present, 24 h): > 50 µM; CC50 at 24 h (AC50 (uM) modified / 1000, Tox21_110001=Tox21_301017, viability, 1 nM T3 present, 24 h): > 90 µM
COC(=O)C(Br)CBr (stereo not drawn) [Methyl 2,3-dibromopropionate]	> 90	
CC(C)(N=C=O)c1cccc(C(C)(C)N=C=O)c1 [1,3-Bis(2-isocyanato-2-propyl)benzene]	78.6	
C=CCc1ccc(OC)c(OC)c1 [Methyleugenol]	> 90	
CCC(=O)OCc1ccc(OC)cc1 [Anisyl propionate]	> 90	
CO[C@@H]1[C@@H](OC(N)=O)[C@@H](O)[C@H](Oc2ccc3c(O)c(NC(=O)c4ccc(O)c(CC=C(C)C)c4)c(=O)oc3c2C)OC1(C)C [Novobiocin sodium]	> 20	
CCOC(N)=O [Urethane]	> 100	
O=S(=O)(O)c1cc(Cl)c(Cl)cc1Cl [2,4,5-Trichlorobenzenesulfonic acid]	> 90	
CCCc1ccccc1 [Propylbenzene]	> 90	
O=[N+]([O-])c1cccc2cccnc12 [8-Nitroquinoline]	> 90	
CCCCCCCCCCCC(C)=O [2-Tridecanone]	> 90	
c1ccc2ccccc2c1 [Naphthalene]	> 90	
Cc1cc(O)no1 [Hymexazol]	> 100	
C=C1[C@@H]2CC[C@@H](C2)C1(C)C [Camphene]	> 90	
O=C(O)C(Br)(Br)Br [Tribromoacetic acid]		CC50 at 24 h (AC50 (uM) modified / 1000, Tox21_110001=Tox21_200913, viability, 1 nM T3 present, 24 h): > 90 µM
CCCCCCCCCCCCCCBr [1-Bromotetradecane]	> 100	

SMILES	CC50 at 24 h (AC50 (uM) modified / 1000) [µM]	further results
CC(=N)S [Thioacetamide]	> 90	
O=C1OC(=O)C2CCCCC12 (stereo not drawn) [Hexahydrophthalic anhydride]	> 90	
CC(C)=CCC/C(C)=C/CC/C(C)=C/CC/C=C(\C)CC/C=C(\C)CCC=C(C)C [(E)-Squalene]	> 50	
CCC(C)CO (stereo not drawn) [2-Methyl-1-butanol]	> 100	
CCCC1C(=O)N2C(N(C)C)=Nc3ccc(C)cc3N2C1=O (stereo not drawn) [Azapropazone]	> 20	
NCC[C@H](O)C(=O)N[C@@H]1C[C@H](N)[C@@H](O[C@H]2O[C@H](CN)[C@@H](O)[C@H](O)[C@H]2O)[C@H](O)[C@H]1O[C@H]1O[C@H](CO)[C@@H](O)[C@H](N)[C@H]1O [Amikacin]	> 50	
CCC(=O)OCCOc1ccccc1 [Phenoxyethyl propionate]	> 90	
CCCCCCCCCCC[C@@H](C[C@@H]1OC(=O)[C@H]1CCCCCC)OC(=O)[C@H](CC(C)C)NC=O [Orlistat]	> 50	
CCCCN(CCCC)c1ccc(C(=O)c2ccccc2C(=O)O)c(O)c1 [2-[4-(Dibutylamino)-2-hydroxybenzoyl]benzoic acid]	46.7	
ClCOCCl [bis(Chloromethyl) ether]	> 90	
CC(=O)OCCOC(C)=O [1,2-Ethanediol diacetate]	> 90	
CCC(=O)Oc1ccc(/C(CC)=C(\CC)c2ccc(OC(=O)CC)cc2)cc1 [Diethylstilbestrol dipropionate]	> 90	
C[C@]12CC[C@H]3[C@@H](CCC4=C(O)C(=O)CC[C@@H]43)[C@@H]1CC[C@@H]2OC(=O)CCC1CCCC1 [Oxabolone cipioncate]		CC50 at 24 h (AC50 (uM) modified / 1000, Tox21_110001=Tox21_112760, viability, 1 nM T3 present, 24 h): > 50 µM
CC(C)=CC=O [3-Methylbut-2-enal]	> 100	
OC[C@@H](O)C(O)[C@@H](O)CO (stereo partly drawn) [Xylitol]	> 90	
O=C(O)COc1nn(Cc2ccccc2)c2ccccc12 [Bendazac sodium]	> 50	
CCCCOC(CC)OC(C)COC(O)CC (stereo not drawn) [Tripropylene glycol butyl ether]	> 90	
CC1(C)CNC(=NN=C(/C=C/c2ccc(C(F)(F)F)cc2)/C=C/c2ccc(C(F)(F)F)cc2)NC1 [Hydramethylnon]	11.2	
Cc1ccccc1-n1c(CF)nc2ccc(N)cc2c1=O [Afloqualone]		CC50 at 24 h (AC50 (uM) modified / 1000, Tox21_110001=Tox21_112447, viability, 1 nM T3 present, 24 h): > 50 µM
Oc1ccc(C(=C(Cl)Cl)c2ccc(O)cc2)cc1 [Bis(4-hydroxyphenyl)-2,2-dichloroethylene]	> 90	
COc1ccccc1N [2-Methoxyaniline hydrochloride]	> 90	

SMILES	CC50 at 24 h (AC50 (uM) modified / 1000) [µM]	further results
c1ccc2[nH]c(-c3cscn3)nc2c1 [Thiabendazole]	> 50	
CC(CN1CC(=O)NC(=O)C1)N1CC(=O)NC(=O)C1 (stereo not drawn) [ICRF-159]	> 90	
CCN(CC)/[N+]([O-])=N/O [1,1-Diethyl-2-hydroxy-2-nitrosohydrazine diethylamine]	> 50	
Cc1nc2ccc(CN(C)c3ccc(C(=O)N[C@@H](CCC(=O)O)C(=O)O)s3)cc2c(=O)[nH]1 [Raltitrexed]	> 50	
COc1cc2c(cc1N)oc1ccccc12 [2-Methoxy-3-aminodibenzofuran]	> 90	
O=C(/C=C/c1cccc(F)c1)NC1CC1 [Cinflumide]	> 50	
CNc1ccccc1 [N-Methylaniline]	> 90	
CC1OC(C)OC(C)O1 (stereo not drawn) [Paraldehyde]		CC50 at 24 h (AC50 (uM) modified / 1000, Tox21_110001=Tox21_111607, viability, 1 nM T3 present, 24 h): > 50 µM; CC50 at 24 h (AC50 (uM) modified / 1000, Tox21_110001=Tox21_301299, viability, 1 nM T3 present, 24 h): > 90 µM
Nc1ccc([N+](=O)[O-])cc1O [2-Amino-5-nitrophenol]	82.7	
O=C(O)COc1ccc(Cl)cc1 [4-Chlorophenoxyacetic acid]	> 90	
CCCCC(=O)O[C@]1(C(=O)CO)CC[C@H]2[C@@H]3CCC4=CC(=O)CC[C@]4(C)[C@H]3[C@@H](O)C[C@@]21C [Hydrocortisone valerate]	> 50	
Cc1cnc(C2=NC(=O)C(C)(C(C)C)N2)c(C(=O)O)c1 (stereo not drawn) [Imazapic]	> 90	
CCC1OCC(COc2ccc(Oc3ccccc3)cc2)O1 (stereo not drawn) [Diofenolan]	> 90	
C=C1CC[C@H](O)C/C1=C/C=C1\CCC[C@]2(C)[C@@H]([C@H](C)CCCC(C)(C)O)CC[C@@H]12 [Calcifediol]	11.5	
c1ccc(SCCSc2ccccc2)cc1 [1,2-Bis(phenylthio)ethane]	> 90	
NC(=S)Nc1cccc2ccccc12 [1-(1-Naphthyl)-2-thiourea]		CC50 at 24 h (AC50 (uM) modified / 1000, Tox21_110001=Tox21_203002, viability, 1 nM T3 present, 24 h): > 5 µM
O=C(c1ccc(O)cc1)c1ccc(Cl)cc1 [4-Hydroxy-4'-chlorobenzophenone]	> 90	
CCCCCCC(=O)O [Heptanoic acid]	> 90	
CNC(=O)Oc1cc(C)cc(C(C)C)c1 [Promecarb]		CC50 at 24 h (AC50 (uM) modified / 1000, Tox21_110001=Tox21_301424, viability, 1 nM T3 present, 24 h): > 90 µM
ClC1=C(Cl)[C@]2(Cl)[C@H]3[C@H]([C@@H]4C=C[C@H]3C4)[C@@]1(Cl)C2(Cl)Cl [Aldrin]		CC50 at 24 h (AC50 (uM) modified / 1000, Tox21_110001=Tox21_202072, viability, 1 nM T3 present, 24 h): 51.6 µM; CC50 at 24 h (AC50 (uM) modified / 1000, Tox21_110001=Tox21_300172, viability, 1 nM T3 present, 24 h): 46.1 µM
Nc1c(S(=O)(=O)O)cc(Br)c2c1C(=O)c1ccccc1C2=O [Bromamine acid sodium salt]	38.3	

SMILES	CC50 at 24 h (AC50 (uM) modified / 1000) [µM]	further results
OCCN(CCO)c1ccccc1 [N-Phenyldiethanolamine]	> 90	
CO[SiH](C)C [Methylpolysilicone]	> 100	
Oc1cc(Cl)cc(Cl)c1Cl [2,3,5-Trichlorophenol]	> 90	
C[C@]12CCC(=O)C[C@@H]1CC[C@@H]1[C@@H]2CC[C@@]2(C)[C@H]1CC[C@]2(C)O [Mestanolone]		CC50 at 24 h (AC50 (uM) modified / 1000, Tox21_110001=Tox21_113424, viability, 1 nM T3 present, 24 h): > 50 µM
CN(C)C(=O)Nc1cccc(C(F)(F)F)c1 [Fluometuron]	> 90	
O=C(O)c1cc2ccccc2nc1C(=O)O [2,3-Quinolinedicarboxylic acid]	> 90	
CC(=O)OCC1=C(C(=O)O)N2C(=O)[C@@H](NC(=O)Cc3ccccc3)[C@H]2SC1 [Cefaloram]	> 50	
CCCCCCCCCCCCCCCCCC(=O)OCC(C)O (stereo not drawn) [Octadecanoic acid, monoester with 1,2-propanediol]	20.7	
CCN[C@H]1CN(CCCOC)S(=O)(=O)c2sc(S(N)(=O)=O)cc21 [Brinzolamide]	> 20	
O=CCCCC=O [Glutaraldehyde]	> 90	
O=C(OCC1CCC2OC2C1)C1CCC2OC2C1 (stereo not drawn) [ECC]	> 100	
CC(=O)CC/C=C(\C)CCC=C(C)C [6,10-Dimethyl-5,9-undecadiene-2-one]	> 90	
CCCCOCCOCCSC#N [2-(2-Butoxyethoxy)ethyl thiocyanate]	> 100	
CN(C)CCOC1=Cc2ccccc2Sc2ccc(Cl)cc21 [Zotepine]	6.89	
O=c1oc2cc(O)ccc2c2oc3cc(O)ccc3c12 [Coumestrol]	> 90	
OC(Cn1cncn1)(c1ccc(F)cc1)c1ccccc1F (stereo not drawn) [Flutriafol]	> 90	
COCCO [2-Methoxyethanol]	> 90	
CC(=O)N[C@@H](CS)C(=O)O [N-Acetyl-L-cysteine]	> 90	
